{"source": "patent US5410068A", "about": "“Succinimidyl trityl compounds and a process for preparing same” (PerSeptive Biosystems, Inc., priority 1989, dated 1995)", "tested_on": "streptavidin agarose", "experiment": "binding of biotin labeled oligonucleotides and amplified DNA to streptavidin agarose support", "settings": "purified oligonucleotide", "protocol": "The major component of each sample was isolated by the method described in Example 12.\nAliquots of the reaction mixture taken at 5 minutes, 55 minutes and 120 minutes were analyzed by reversed-phase HPLC. The analysis indicated complete disappearance of the major component of the crude mixture in favor of a more hydrophobic product within two hours.\nStreptavidin agarose (Gibco BRL, Bethesda Md.) was treated before use. The agarose was washed three times with 200 μl of 150 mM NaCl, 10 mM NaH2 PO4 pH 7.2 containing 0.05% NaN3 and 10% acetonitrile. A 25 μl aliquot of 0.5M NaCl in 80% aqueous acetic acid containing 0.5% (w/v) aminoethanethiol hydrochloride was then washed through the resin and then 100 μl of this solution was allowed to react with the streptavidin agarose for 1 hr. The resin was again washed three times with 100 μl of 150 mM NaCl, 10 mM NaH2 PO4 pH 7.2 containing .05% NaN3 and 10% acetonitrile.\nFollowing amplication, a portion of each PCR reaction (50 μl) was incubated with pretreated (see Example 16) streptavidin agarose (100 μl) for 30 minutes. At the end of the incubation, the supernatant was removed and the streptavidin agarose was washed twice with 100 μl of 150 mM NaCl, 10 mM NaH2 PO4 pH 7.2 containing 0.05% NaN3 and 10% acetonitrile (hereafter called streptavidin buffer).The washings were combined with the supernatant. […]", "note": "{Biotin} = biotin attached to 5'-amino group"}
{"substance": "new product: biotinylated 5'-amino group containing partially protected 15-mer 5'-TCCCAGTCACGACGT-3' (treated with 1,6-diaminohexane) (DNA, 5' {Biotin}, backbone and methylation of C not given here; biotin via aminohexyl, partially protected)", "values": [{"measurement": "binding to streptavidin agarose", "result": "shown to bind to streptavidin agarose"}]}
